The text below walks through data of ChEMBL document CHEMBL1201862, “PubChem BioAssay data set” (2004).

Structures are written as SMILES.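 Five concentrations, 48 hours, 96-well plates. Here, GI50 denotes the concentration required for 50% inhibition of growth.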 The source made the active and inactive calls. No stated cut-off is given here; in the data, active = GI50 up to about 1.1 µM and inactive = higher.

Among the test systems are KM12; SR; HCT-116; SW-620; NCI-H23; SK-MEL-5; UO-31; OVCAR-3; RXF 393; OVCAR-8; HCC 2998; HL-60; MOLT-4; RPMI-8226; PC-3; U-251; HOP-62; IGROV-1; MDA-MB-435; A498.
Common to all, as to experiment: NCI anticancer screen, dose series, 48 h

Turning to `COC(=O)[C@@H]1C[C@@]2(C3C=CN(C(=O)C(F)(F)F)C=C3)c3ccccc3N(C(=O)C(F)(F)F)[C@H]2N1C(=O)OC`, the GI50 is > 100 µM (inactive) in the assay with KM12; 53.8 µM (inactive) in the assay with SR; > 100 µM (inactive) with HCT-116; 47.3 µM (inactive) with SW-620; > 100 µM (inactive) with NCI-H23; 70 µM (inactive) with SK-MEL-5. Moreover, the GI50 is > 100 µM (inactive) with UO-31; 90.8 µM (inactive) in the assay with OVCAR-3; 24.5 µM (inactive) in the assay on RXF 393; > 100 µM (inactive) with OVCAR-8; 57.8 µM (inactive) with HCC 2998; 30.9 µM (inactive) in the assay with HL-60. The GI50 with MOLT-4 was 61.5 µM (inactive); with RPMI-8226, 42.1 µM (inactive); in the assay on PC-3, 70.8 µM (inactive); with U-251, 43 µM (inactive); in the assay on HOP-62 it was 49.5 µM (inactive); in the assay on IGROV-1, > 100 µM (inactive). The GI50 is 44.8 µM (inactive) in the assay with MDA-MB-435 and > 100 µM (inactive) with A498.
In the case of `C[N+]1([O-])C2CCC1CC(OC(=O)C(CO)c1ccccc1)C2` (stereo not given), the GI50 with KM12 is > 100 µM (inactive); with SR it was > 36.6 µM (inactive); in the assay on HCT-116 it was > 100 µM (inactive); in the assay on SW-620 it was > 100 µM (inactive); in the assay on NCI-H23 it was > 33.8 µM (inactive); in the assay with SK-MEL-5, > 100 µM (inactive). The GI50 with UO-31, in the assay on OVCAR-3, in the assay on RXF 393, in the assay on OVCAR-8, in the assay with HCC 2998 and in the assay with HL-60 was > 100 µM (inactive) in each case. The GI50 with MOLT-4, in the assay with RPMI-8226, in the assay with PC-3, in the assay on U-251, in the assay on HOP-62 and with IGROV-1 was > 100 µM (inactive) in each case. Also, the GI50 in the assay on MDA-MB-435 and in the assay with A498 was > 100 µM (inactive) throughout.
Consider `CC(C)(C)C1CC[C@H](O)[C@H]([C@@H](O)CC2CC(=O)N(c3ccccc3)C(=O)C2)C1` (stereo not given in full), for which the GI50 is 47.5 µM (inactive) in the assay with KM12; 40.9 µM (inactive) with SR; 60.5 µM (inactive) with HCT-116; > 100 µM (inactive) in the assay on SW-620; > 100 µM (inactive) with NCI-H23; 45.2 µM (inactive) in the assay on SK-MEL-5. The GI50 with UO-31 was 76.4 µM (inactive); in the assay on OVCAR-3 it was 50.9 µM (inactive); in the assay on RXF 393, 64 µM (inactive); in the assay with OVCAR-8 it was 50.7 µM (inactive); in the assay with HCC 2998 it was 27.9 µM (inactive); in the assay on HL-60 it was 28.1 µM (inactive). In addition, the GI50 in the assay with MOLT-4 is 38.9 µM (inactive); in the assay on RPMI-8226, 46.2 µM (inactive); in the assay on PC-3, 91.8 µM (inactive); with U-251, 55.8 µM (inactive); with HOP-62 it was > 100 µM (inactive); in the assay on IGROV-1 it was > 100 µM (inactive). The GI50 with MDA-MB-435 is 55.2 µM (inactive); with A498 it was > 100 µM (inactive).
`COc1ccc(/C=N/n2c(-c3ccccc3)n[nH]c2=O)c(OC)c1`: the GI50 with KM12 was 45.8 µM (inactive); with SR, > 100 µM (inactive); with HCT-116, 54.5 µM (inactive); in the assay with SW-620 it was > 100 µM (inactive); in the assay on NCI-H23 it was 39.4 µM (inactive); in the assay with SK-MEL-5 it was > 68.9 µM (inactive). The GI50 with UO-31 is 24.4 µM (inactive); in the assay with OVCAR-3, 79.6 µM (inactive); in the assay with RXF 393, 29.3 µM (inactive); with OVCAR-8, 29.9 µM (inactive); with HCC 2998, > 100 µM (inactive); in the assay on HL-60, > 100 µM (inactive). Further, the GI50 with MOLT-4 is > 100 µM (inactive); in the assay with RPMI-8226, > 100 µM (inactive); with PC-3, 50.1 µM (inactive); in the assay with U-251, 40.6 µM (inactive); in the assay with HOP-62 it was 29.8 µM (inactive); with IGROV-1, 36.9 µM (inactive). In addition, the GI50 in the assay with MDA-MB-435 is > 100 µM (inactive); in the assay with A498, 31.6 µM (inactive).
For `N=C(N)SC(c1ccccc1)c1ccccc1`, the GI50 is 16.2 µM (inactive) in the assay on KM12; 24 µM (inactive) in the assay with SR; 12.2 µM (inactive) in the assay on HCT-116; 16.8 µM (inactive) in the assay on SW-620; 13 µM (inactive) in the assay with NCI-H23; 17.3 µM (inactive) in the assay on SK-MEL-5. Moreover, the GI50 is 11.2 µM (inactive) with UO-31; 14.2 µM (inactive) in the assay on OVCAR-3; 6.52 µM (inactive) in the assay on RXF 393; 15.3 µM (inactive) in the assay on OVCAR-8; 6.18 µM (inactive) with HCC 2998; 17.1 µM (inactive) in the assay on HL-60. The GI50 was 15.7 µM (inactive) in the assay with MOLT-4; 10.2 µM (inactive) in the assay with RPMI-8226; 14.3 µM (inactive) in the assay on PC-3; 15.3 µM (inactive) with U-251; 19.6 µM (inactive) in the assay with HOP-62; 18.5 µM (inactive) with IGROV-1. Besides, the GI50 with MDA-MB-435 is 12.6 µM (inactive); in the assay with A498, 17.3 µM (inactive).
Regarding `O=C1OCC(c2ccc(Cl)cc2)=C1Cl`, the GI50 is 15.4 µM (inactive) in the assay on KM12; 16.7 µM (inactive) in the assay on SR; 13.9 µM (inactive) in the assay on HCT-116; 25.4 µM (inactive) in the assay with SW-620; 19.1 µM (inactive) in the assay with NCI-H23; 17.1 µM (inactive) in the assay with SK-MEL-5. Also, the GI50 in the assay with UO-31 is 18.1 µM (inactive); with OVCAR-3, 20.7 µM (inactive); with RXF 393 it was 25.1 µM (inactive); in the assay with OVCAR-8, 25.5 µM (inactive); with HCC 2998, 29 µM (inactive); in the assay on HL-60, 19.8 µM (inactive). Also, the GI50 in the assay on MOLT-4 is 32.1 µM (inactive); with RPMI-8226, 23.8 µM (inactive); in the assay on PC-3, 22.1 µM (inactive); with U-251, 35.8 µM (inactive); in the assay with HOP-62 it was 22.9 µM (inactive); in the assay on IGROV-1, < 0.01 µM (active). For the same compound, the values for the GI50 in the assay with MDA-MB-435 and in the assay with A498 were 33.2 µM (inactive) and 82 µM (inactive), respectively.
For the compound `CCn1c(SCC(=O)NNC(=S)Nc2ccc(F)cc2)nc2ccccc2c1=O`, the GI50 with KM12 was > 100 µM (inactive); in the assay with SR it was 49.4 µM (inactive); with HCT-116 it was > 100 µM (inactive); in the assay with SW-620 it was > 100 µM (inactive); in the assay on NCI-H23, > 100 µM (inactive); in the assay on SK-MEL-5, > 100 µM (inactive). For the same compound, the GI50 with UO-31 was 17.9 µM (inactive); in the assay on OVCAR-3, > 100 µM (inactive); in the assay with RXF 393 it was > 100 µM (inactive); in the assay on OVCAR-8, > 100 µM (inactive); in the assay with HCC 2998 it was > 100 µM (inactive); in the assay on HL-60 it was > 100 µM (inactive). For the same compound, the GI50 with MOLT-4 was 44.4 µM (inactive); in the assay on RPMI-8226, 63.5 µM (inactive); with PC-3, 66.1 µM (inactive); with U-251 it was > 100 µM (inactive); in the assay on HOP-62, > 100 µM (inactive); in the assay with IGROV-1 it was > 100 µM (inactive). The GI50 with MDA-MB-435 and in the assay with A498 was > 100 µM (inactive) each time.
`CC(C)N1[C@@H]2CCCC[C@H]2N(C(C)C)P1(=O)C(=O)/C=C/c1ccccc1`: the GI50 is 3.23 µM (inactive) in the assay with KM12; 2.83 µM (inactive) in the assay on SR; 1.96 µM (inactive) in the assay on HCT-116; 2.58 µM (inactive) with SW-620; 2.16 µM (inactive) in the assay on NCI-H23; 1.5 µM (inactive) in the assay with SK-MEL-5. In addition, the GI50 was 1.64 µM (inactive) in the assay with UO-31; 2.38 µM (inactive) in the assay with OVCAR-3; 1.69 µM (inactive) in the assay with RXF 393; 1.73 µM (inactive) with OVCAR-8; 2.18 µM (inactive) in the assay on HCC 2998; 1.65 µM (inactive) in the assay on HL-60. Besides, the GI50 is 2.7 µM (inactive) in the assay on MOLT-4; 2.49 µM (inactive) in the assay with RPMI-8226; 4.18 µM (inactive) in the assay on PC-3; 4.08 µM (inactive) in the assay with U-251; 3.88 µM (inactive) with HOP-62; 1.98 µM (inactive) in the assay on IGROV-1. The GI50 with MDA-MB-435 was 1.76 µM (inactive); in the assay with A498, 2.75 µM (inactive).
With `COC(=O)/C(=C/c1ccc(OC)cc1)c1cc(OC)c(OC)c(OC)c1`, the GI50 is 0.521 µM (active) in the assay on KM12; 0.379 µM (active) in the assay with SR; 2.16 µM (inactive) in the assay on HCT-116; 0.643 µM (active) in the assay with SW-620; 2.84 µM (inactive) with NCI-H23; 0.569 µM (active) in the assay with SK-MEL-5. The GI50 with UO-31 was 5.46 µM (inactive); with OVCAR-3 it was 0.527 µM (active); in the assay with RXF 393 it was 1.24 µM (inactive); with OVCAR-8, 4.28 µM (inactive); with HCC 2998, 10.7 µM (inactive); in the assay on HL-60, 0.406 µM (active). The GI50 in the assay on MOLT-4 was 1.44 µM (inactive); with RPMI-8226, 2.52 µM (inactive); with PC-3 it was 0.693 µM (active); in the assay with U-251 it was 2 µM (inactive); in the assay on HOP-62 it was 1.53 µM (inactive); in the assay with IGROV-1, 2.48 µM (inactive). The figures for the GI50 in the assay on MDA-MB-435 and with A498 were 0.112 µM (active) and 7.05 µM (inactive), respectively.
For the compound `OC(O)(C(F)(F)F)C(F)(F)F`, the GI50 with KM12, in the assay with SR, in the assay with HCT-116, in the assay with SW-620, in the assay on NCI-H23 and with SK-MEL-5 was > 100 µM (inactive) throughout. For the same compound, the GI50 in the assay on UO-31, in the assay with OVCAR-3, in the assay with RXF 393, in the assay with OVCAR-8, in the assay with HCC 2998 and with HL-60 was > 100 µM (inactive) throughout. The GI50 in the assay with MOLT-4, with RPMI-8226, with PC-3, in the assay on U-251, in the assay on HOP-62 and in the assay on IGROV-1 was > 100 µM (inactive) throughout. For the same compound, the GI50 in the assay on MDA-MB-435 and with A498 was > 100 µM (inactive) throughout.
